Test results reported in BigSolDB 2.1.

Structure (SMILES): OC[C@@H](O)[C@@H](O[C@H]1O[C@H](CO)[C@@H](O)[C@H](O)[C@H]1O)[C@H](O)[C@@H](O)CO
- solubility (mole fraction) (in DMF, 298.15 K): 0.00761
- solubility (mole fraction) (in DMF, 303.15 K): 0.00819
- solubility (mole fraction) (in DMF, 308.15 K): 0.00922
- solubility (mole fraction) (in DMF, 313.15 K): 0.0109
- solubility (mole fraction) (in DMF, 318.15 K): 0.0128
- solubility (mole fraction) (in DMF, 323.15 K): 0.0153
- solubility (mole fraction) (in ethanol, 298.15 K): 3.6e-05
- solubility (mole fraction) (in ethanol, 303.15 K): 4.4e-05
- solubility (mole fraction) (in ethanol, 308.15 K): 5.2e-05
- solubility (mole fraction) (in ethanol, 313.15 K): 6.2e-05
- solubility (mole fraction) (in ethanol, 318.15 K): 7.4e-05
- solubility (mole fraction) (in ethanol, 323.15 K): 9.4e-05
- solubility (mole fraction) (in isopropanol, 298.15 K): 1.9e-05
- solubility (mole fraction) (in isopropanol, 303.15 K): 2.3e-05
- solubility (mole fraction) (in isopropanol, 308.15 K): 2.7e-05
- solubility (mole fraction) (in isopropanol, 313.15 K): 3e-05
- solubility (mole fraction) (in isopropanol, 318.15 K): 3.8e-05
- solubility (mole fraction) (in isopropanol, 323.15 K): 5.1e-05
- solubility (mole fraction) (in methanol, 298.15 K): 0.00029
- solubility (mole fraction) (in methanol, 303.15 K): 0.000337
- solubility (mole fraction) (in methanol, 308.15 K): 0.000393
- solubility (mole fraction) (in methanol, 313.15 K): 0.000453
- solubility (mole fraction) (in methanol, 318.15 K): 0.000552
- solubility (mole fraction) (in methanol, 323.15 K): 0.000706
- solubility (mole fraction) (in water, 298.15 K): 0.0616
- solubility (mole fraction) (in water, 303.15 K): 0.0671
- solubility (mole fraction) (in water, 308.15 K): 0.0786
- solubility (mole fraction) (in water, 313.15 K): 0.0972
- solubility (mole fraction) (in water, 318.15 K): 0.111
- solubility (mole fraction) (in water, 323.15 K): 0.125
